Consider four compounds from patent US20100016244A1, “D-GLUCOPYRANOSE 1-[3,5-BIS (1,1-DIMETHYLETHY)-4-HYDROXYBENZOATE] AND ITS DERIVATIVES, PREPARATION AND USE THEREOF” (priority 2006, published 2010).

Data set [1] has as its system enveloped-viruses. In words: Active concentration on enveloped-viruses. As to conditions: BHT versus RDW 031.
Data set [2] in a line: Solubility in water (tests 1-3). As to conditions: for pH: after stirring for 48 H at 23° C. in water.
The test system of data set [3] is HIV.
The test system of data set [4] is VHS (Herpes Simplex Virus). As to conditions: from FR 2 668 931; cited from earlier work.
Data set [5] deals with HIV. As to conditions: cited from earlier work.
The subject of data set [6] is polio virus.
Data set [7] in a line: Studies on rats (progeny, mutagenic effect).
The test system of data set [8] is VHS (Herpes Simplex Virus). As to the kind of experiment: Virucidal activity on VHS (Herpes Simplex Virus), decrease in log by concentration and contact time. The following applies: for Decrease expressed in log: test n° 4. The protocol:
Results of the tests conducted in the laboratory of Prof. Chiron, (Faculty of Pharmacy of Tours): [table] hypothesis: 10 mg/8 ml (solubility check) Stock-solution: 33.47 mg/24.10 ml (x 1.11 C) i.e.: 11.11 mg/8 ml [table]

A short description of data set [9]: physchem. As to conditions: water, thermodynamic from solid.

Molecules are shown by their SMILES. In brackets after ≈: the same amount, converted by molar mass. A value given as a limit tells only on which side of the number the result lay.

Take `Cc1cc(C(C)(C)C)c(O)c(C(C)(C)C)c1` [BHT, butylhydroxytoluene]: in data set [1], the “molar active concentration relative to RDW 031” value is reported as 100 times.

Regarding `CC(C)(C)c1cc(C(=O)O)cc(C(C)(C)C)c1O` [BG4, 3,5-di-t-butyl-4-hydroxybenoic acid], the “Solubility 12 H at 23° C.” value in [2] (Test No 2, water, RDW031 batch RV 34) is given as “insoluble”. In addition, in data set [2] (Test no 3, 1 g + 100 ml H2O, RDW031 batch RV 41, BG4 from SIGMA-ALDRICH), the “Solubility after stirring for 48 H at 23° C.” value was 130 µg/mL. The pH result in data set [2] (Test no 3) was “pH = 5.6”. Also, the “Solubilité ½ H à 23° c.” value in data set [2] (water, ½ H at 23° C.) was “No measurable”. Moreover, the “Solubility ½ H at 100° C.” value in data set [2] (water, ½ H at 100° C., no desolubilization at room temperature) is on record as 0.84 g/litre (no. The “reduction of the virulence of a HIV culture” value in [3] was 5 log. In addition, in data set [4], the “concentration required for effectiveness on VHS” value is listed as 0.5%.

Regarding `CC(C)(C)c1cc(C(=O)OCCOCCOCCOCCOCCOCCOCCOCCO)cc(C(C)(C)C)c1O` [AVF1, 3.5-di-tert-butyl-4-hydroxybenzoate octa-oxy-ethylene glycol], the “decrease of HIV's infectivity” value in [5] was 7 log.

Turning to `CC(C)(C)c1cc(C(=O)OC2O[C@H](CO)[C@@H](O)[C@H](O)[C@H]2O)cc(C(C)(C)C)c1O` (stereo partly drawn) [RDW031], the pH result in data set [2] (Test no 3) is reported as “pH = 5.9”. In addition, in data set [6], the “effect on polio virus (naked-virus)” value is listed as “no effect”. In [7], the “effects on progeny and mutagenic effect” value is recorded as “never shown any detectable effects”. Besides, in data set [8], the “active concentration, starting” value is at least 0.0625%. Also, the “Reduction expressed in log” value in data set [8] (0.00125 mg/ml (1/1000), contact time 120 min) is recorded as 0.31 log; in data set [8] (0.00250 mg/ml (1/500), contact time 60 min), 1.06 log; in data set [8] (0.00250 mg/ml (1/500), contact time 120 min), 1.15 log; in [8] (0.00625 mg/ml (1/200), contact time 60 min) it was 1.06 log; in [8] (0.02500 mg/ml (1/50), contact time 30 min) it was 0.31 log; in data set [8] (0.06250 mg/ml (1/20), contact time 30 min), 0.21 log. Besides, the “Reduction expressed in log” value is on record as 0.00 log in [8] (0.25000 mg/ml (⅕), contact time 15 min) and 3.68 log in data set [8] (0.62500 mg/ml (½), contact time 15 min). For the same compound, in data set [8] (converted from % concentration), the “active concentration expressed” value was at least 0.0015 mol. Also, the “Decrease expressed in log” value in data set [8] (0.17028 mg/ml (⅕), contact time 15 min) was 0.00 log; in data set [8] (0.17028 mg/ml (⅕), contact time 30 min) it was 0.00 log; in data set [8] (0.17028 mg/ml (⅕), contact time 60 min) it was 0.00 log; in [8] (0.17028 mg/ml (⅕), contact time 120 min), 0.00 log; in data set [8] (0.42570 mg/ml (½), contact time 60 min), 0.00 log; in data set [8] (0.42570 mg/ml (½), contact time 120 min) it was 1.48 log. Also, the “Decrease expressed in log” value in data set [8] (0.85140 mg/ml (pur), contact time 15 min) was determined as 1.25 log; in [8] (0.85140 mg/ml (pur), contact time 30 min), 1.86 log; in [8] (0.85140 mg/ml (pur), contact time 60 min) it was 2.15 log; in data set [8] (0.85140 mg/ml (pur), contact time 120 min), 2.32 log. For the same compound, the “reduction of the virulence of a HIV culture” value in data set [3] is on record as 5 log. The solubility at 0.5 h in data set [9] (23 °C) was 40 µg/mL (≈ 97 µM); in data set [9] (100 °C), 1080 µg/mL (≈ 2620 µM). In data set [9] (23 °C), the solubility at 12 h stood at 1200 µg/mL (≈ 2910 µM).
